# Measurements from patent US20250223628A1, “METHODS OF IMPROVING SURVIVAL AND ELIMINATING TREATMENT-LIMITING TOXICITIES OF DICHLOROACETATE IN PATIENTS WITH PYRUVATE DEHYDROGENASE COMPLEX DEFICIENCY” (SAOL INTERNATIONAL DEVELOPMENT LTD., priority 2024, published 2025).
# Where two headings read alike, the source gives them in different places.
# Legend:
# patients with PDCD [1] = assay: Survival analysis of DCA treatment cohort versus DeBrosse natural history cohort; format: in vivo, human; conditions: for Adjusted Odds Ratio (95% CI): DCA vs natural history
# Experimental: As a result, an analysis procedure was identified that used the data available in the DeBrosse natural history study to assess whether or not DCA extended life. The analysis was conducted to answer the following questions: • a. Did the year of birth have any effect on survival? For example, has standard of care improved. • b. Is the primary driver of survival differences from natural history driven by the ketogenic diet, the current standard of care, although empirical approach to managing PDCD patients? • c. Once the population is controlled for an index age, gender and age of disease onset, does DCA provide a survival benefit? • d. Once the population is controlled for an index age and age of disease onset, does DCA provide a survival benefit? • e. Once the population has the maximum duration of follow-up, including with patients that discontinued treatment, does DCA provide a survival benefit?
# After accounting for two patients with multiple exclusion criteria, 34 patients (14 males and 20 females) from the DeBrosse study remain for potential matching for the current analyses.
# Baseline characteristics related to drug and non-drug treatment, age at the earliest recorded of first related symptom, initiation of the ketogenic diet or diagnosis and other baseline demographics were compared for each analysis. It was notable that the Phase III cohort had more females. This was controlled by conducting a 1:1 matched cohort in the primary analysis that requires gender matching.
# A summary of all analyses conducted with both Kaplan-Meier log-rank statistics and hazard/odds ratio reductions are provided below: […]
# [2] = cited from earlier work
# patients with PDCD [3] = assay: Prospective, randomized, double-blind, placebo-controlled crossover study with GSTZ1 haplotype-based DCA dosing and open-label extension; format: in vivo, human
# Experimental: A prospective, randomized, double-blind, placebo-controlled crossover study was conducted in patients with PDCD. This study was the first study to prospectively use GSTZ1 haplotype testing to identify a dose that may help to mitigate the risk of peripheral neuropathy from chronic administration of DCA. These patients were treated with either DCA or placebo for 4 months, provided placebo for a 1-month washout period and then were placed on the placebo or DCA, whichever they had not taken prior. Patients then had the option to continue on open-label DCA until the ultimate completion of the study or regulatory approval. 34 PDCD patients were recruited into the study. 7 (21%) of these patients were prospectively identified as “slow metabolizers”. Rather than having a dose of 25 mg/kg/day, these patients were provided DCA doses at 12.5 mg/kg/day. Both dosing groups took DCA in two equal, weight-based doses. This was the first prospective study completed using the haplotype testing and conducted solely in the PDCD patient population.
# The study had anticipated a 20% dropout rate due to death or peripheral neuropathy.
# [4] = test system: patients with congenital lactic acidosis (CLA); conditions: 25 mg/kg broken into two daily doses, cited from earlier work
# [5] = Abdelmak 2013, Congenital Lactic Acidosis, 8 total patients
# [6] = Dunbar 2014, Recurrent Malignant Brain Tumor, 8 total patients
# [7] = Kaufmann 2006, MELAS, 15 total patients
# [8] = Michelakis 2017, Pulmonary Arterial Hypertension, 20 total patients
# [9] = Stacpoole 2008, Congenital Lactic Acidosis, 36 total patients
smiles,measurement,setting,value
"O=C(O)C(Cl)Cl [DCA, Dichloroacetate]",Adjusted Odds Ratio (95% CI),"patients with PDCD [1]; Full Cohort Comparison, multivariate P 0.0065",0.014
same,Adjusted Odds Ratio (95% CI),"patients with PDCD [1]; Matched on Age and Sex, Excluding 1980s Patients with Extended Follow-Up, multivariate P 0.0055",0.023
same,Adjusted Odds Ratio (95% CI),"patients with PDCD [1]; Matched on Age and Sex, Excluding 1980s Patients, multivariate P 0.0033",0.0072
same,Adjusted Odds Ratio (95% CI),"patients with PDCD [1]; Matched on Age, multivariate P 0.0012",0.0071
same,Adjusted Odds Ratio (95% CI),"patients with PDCD [1]; Matched on Sex and Follow-Up Duration, multivariate P 0.024",0.026
same,Adjusted Odds Ratio (95% CI),"patients with PDCD [1]; Primary Analysis with Extended Follow-Up, multivariate P 0.0029",0.013
same,Adjusted Odds Ratio (95% CI),"patients with PDCD [1]; Primary Analysis: Matched on Age and Sex, multivariate P 0.0061",0.011
same,DCA Treatment Cohort Mortality Rate (95% CI),"patients with PDCD [1]; Full Cohort Comparison, N 33, log rank P 0.003",0.00
same,DCA Treatment Cohort Mortality Rate (95% CI),"patients with PDCD [1]; Matched on Age and Sex with Replacement with Extended Follow-Up, N 31, log rank P 0.0443",1.38
same,DCA Treatment Cohort Mortality Rate (95% CI),"patients with PDCD [1]; Matched on Age and Sex with Replacement, N 31, log rank P 0.0295",0.00
same,DCA Treatment Cohort Mortality Rate (95% CI),"patients with PDCD [1]; Matched on Age and Sex with Unknown Onset Imputed at 0, N 28, log rank P 0.0273",0.00
same,DCA Treatment Cohort Mortality Rate (95% CI),"patients with PDCD [1]; Matched on Age and Sex with Unknown Onset Imputed at 0 with Extended Follow-Up, N 28, log rank P 0.0357",1.55
same,DCA Treatment Cohort Mortality Rate (95% CI),"patients with PDCD [1]; Matched on Age and Sex, Excluding 1980s Patients with Extended Follow-Up, N 25, log rank P 0.0899",1.74
same,DCA Treatment Cohort Mortality Rate (95% CI),"patients with PDCD [1]; Matched on Age and Sex, Excluding 1980s Patients, N 25, log rank P 0.0255",0.00
same,DCA Treatment Cohort Mortality Rate (95% CI),"patients with PDCD [1]; Matched on Age, N 32, log rank P 0.0019",0.00
same,DCA Treatment Cohort Mortality Rate (95% CI),"patients with PDCD [1]; Matched on Sex and Follow-Up Duration, N 28, log rank P 0.0211",0.00
same,DCA Treatment Cohort Mortality Rate (95% CI),"patients with PDCD [1]; Primary Analysis with Extended Follow-Up, N 28, log rank P 0.0357",1.55
same,DCA Treatment Cohort Mortality Rate (95% CI),"patients with PDCD [1]; Primary Analysis: Matched on Age and Sex, N 28, log rank P 0.0273",0
same,Peripheral Neuropathy Adverse Event Rate,[2]; [5],38%
same,Peripheral Neuropathy Adverse Events,[2]; [5],3
same,Peripheral Neuropathy Adverse Event Rate,[2]; [6],25%
same,Peripheral Neuropathy Adverse Events,[2]; [6],2
same,Peripheral Neuropathy Adverse Event Rate,[2]; [7],100%
same,Peripheral Neuropathy Adverse Events,[2]; [7],15
same,Peripheral Neuropathy Adverse Event Rate,[2]; [8],25%
same,Peripheral Neuropathy Adverse Events,[2]; [8],5
same,Peripheral Neuropathy Adverse Event Rate,[2]; [9],36%
same,Peripheral Neuropathy Adverse Events,[2]; [9],13
same,Peripheral Neuropathy Adverse Events,"[2]; Total of five studies, 87 total patients",38
same,Peripheral Neuropathy Adverse Event Rate,"[2]; Total of several studies across multiple disease states, 87 total patients",44%
same,Dose required for a similar pharmacokinetic exposure,"[2]; slow metabolizer group of GSTZ1 haplotypes, fraction of the dose",roughly ½
same,Recovery from peripheral neuropathy exhibited during DCA administration,[2]; time to recovery,≤ 9 months
same,Completion of the double-blind portion,"patients with PDCD [3]; 34 PDCD patients, 25 or 12.5 mg/kg/day by haplotype",all of the patients completed
same,Dropouts for other reasons,patients with PDCD [3]; double-blind portion,zero
same,Events of peripheral neuropathy,patients with PDCD [3]; double-blind study,zero
same,Events of neuropathy possibly related to therapy,"patients with PDCD [3]; open-label phase, occurred after 18 months of exposure",one
same,Patients who experienced peripheral neuropathy,[4]; double blind portion,36%
same,Patients who experienced peripheral neuropathy,[4]; long-term extension arm,38%
